Assay results reported in PMC4389562, “Antigiardial activity of novel triazolyl-quinolone-based chalcone derivatives: when oxygen makes the difference” (Frontiers in Microbiology, 2015).
Like-named read-outs stand apart in the source and are kept apart here.

Experiments:
[1] = tested on: Giardia intestinalis trophozoites; experiment: Drug susceptibility of Giardia trophozoites, ATP level by luminescence (BacTiter-Glo), 48 h incubation, anaerobic or microaerobic; type: cell-based, Giardia intestinalis strain WB clone C6; details: for IC50: Giardia duodenalis, 48 h, 37 °C, ATP level; for selectivity ratio at 48 h: human (Caco-2 cells) versus Giardia intestinalis, Caco-2, SI = IC50,Caco-2/IC50,Giardia; for fold more efficient than MTZ against Giardia: anaerobic conditions, relative to MTZ
Experimental: Trophozoites of G. intestinalis strain WB clone C6 (ATCC No. 50803TM) were cultured axenically at 37^∘C in 25-cm^2 flasks containing Diamond's TYI-S-33 medium supplemented with 10% bovine calf serum, 1 mg/mL bovine bile, 0.1 g/L streptomycin and 100 U/mL penicillin. Typically, 50 ml medium was inoculated with 25 × 10^6 cells and after 2 days cells were harvested by chilling the flasks on ice for 30 min for drug susceptibility assays. […] The assays were performed following the procedure described in [Bahadur et al. (2014)], using sterile 96-well white clear-bottom plates. […] Each drug concentration was tested in at least six replicates. MTZ was used as an internal positive control in the assay. The microtiter plates were then incubated at 37^∘C under anaerobic or microaerobic conditions, ensured by the Anaerocult® A or the Anaerocult® […] (Merck), respectively. […] Following 48 h incubation with the compound to be tested, 100 μL of the BacTiter-Glo^TM Microbial Cell Viability Assay System reagent (Promega) was added to each well for one-step lysis and ATP level detection. Plates were then incubated at room temperature for 15 min and ATP levels finally detected by luminescence on a plate reader (Wallac Victor3 1420 Multilabel Counter, PerkinElmer). Luminometric data were calibrated using ATP standard curves and normalized to the ATP level measured in control DMSO-treated cells (taken as 100%). The measured ATP level percentage was plotted as a function of the compound concentration and the half-maximal inhibitory concentration (IC50) was obtained by fitting the resulting titration profile to the Hill equation ([Goutelle et al., 2008]). The selectivity index (SI) of the compounds was then calculated as the ratio between the IC50 value measured on human cells over the value determined on Giardia trophozoites (SI = IC50,Caco-2/IC50,Giardia). The antigiardial activity of the novel compounds 23-67 was tested under both anaerobic and microaerobic conditions. According to ([Dunn et al., 2010]; [Bahadur et al., 2014]), susceptibility of Giardia trophozoites to increasing concentrations of each compound was assessed based on ATP level determination by luminescence. Dose-response curves for each compound were obtained after 48 h-incubation and compared to the data collected under identical conditions with MTZ, the drug of choice for treatment of giardiasis. […] Typical dose-response curves are shown in Figure 2, whereas the IC50 values measured for the synthetic compounds and MTZ under anaerobic and microaerobic conditions are reported in Table 1. […] Under anaerobic conditions, 18 out of the 45 synthetic compounds were as effective as MTZ or more under identical conditions (see Table 1).

Caco-2 cells = experiment: Counter-screen on Caco-2 cells, ATP level by luminescence (ATPlite), 48 h incubation; type: cell-based, human; details: Homo sapiens, Caco-2, 48 h, atmospheric O2, 5% CO2, 48 h, 37 °C
Experimental: Trophozoites of G. intestinalis strain WB clone C6 (ATCC No. 50803TM) were cultured axenically at 37^∘C in 25-cm^2 flasks containing Diamond’s TYI-S-33 medium supplemented with 10% bovine calf serum, 1 mg/mL bovine bile, 0.1 g/L streptomycin and 100 U/mL penicillin. […] Human epithelial colorectal adenocarcinoma (Caco-2) cells were grown in 25-cm^2 flasks in EMEM supplemented with 1% (v/v) non-essential amino acids, 2 mM glutamine, 5% (v/v) fetal bovine serum, 0.1 g/L streptomycin, and 100 U/mL penicillin.
Cells were detached with 0.5% trypsin-EDTA and seeded in sterile 96-well white clear-bottom plates at the same density of Giardia trophozoites and at increasing concentration of the compound to be tested, as described above. The assays were carried out exactly as reported for the Giardia trophozoites, except that the plates were incubated (still at 37^∘C) at atmospheric O2 level, 5% CO2, and 95% humidity. Each drug concentration was tested in at least seven replicates. MTZ was used as an internal […] control in the assay. Following 48 h incubation with each compound, according to the manufacturer instructions, 100 μL of the ATPlite^TM luminescence assay system (Perkin Elmer) was added to each well for one-step lysis and ATP level detection by luminescence.
Luminometric data were calibrated using ATP standard curves and normalized to the ATP level measured in control DMSO-treated cells (taken as 100%). The measured ATP level percentage was plotted as a function of the compound concentration and the half-maximal inhibitory concentration (IC50) was obtained by fitting the resulting titration profile to the Hill equation ([Goutelle et al., 2008]). The selectivity index (SI) of the compounds was then calculated as the ratio between the IC50 value measured on human cells over the value determined on Giardia trophozoites (SI = IC50,Caco-2/IC50,Giardia).
Selectivity of the newly synthesized compounds toward Giardia was assessed by running a counter-screen on human epithelial Caco-2 cells. […] This allowed us to calculate the compounds SI, defined as the ratio between the IC50 value measured on human cells over the value determined on Giardia trophozoites.

[2] = anaerobic conditions (Anaerocult A), read-out: Giardia (anaerobiosis) IC50
[3] = microaerobic conditions (~5% O2, Anaerocult C), read-out: Giardia (microaerobiosis) IC50
[4] = Giardia under anaerobiosis, read-out: Selectivity (IC50,Caco/IC50,Giardia) Anaerobiosis
[5] = Giardia under microaerobiosis, read-out: Selectivity (IC50,Caco/IC50,Giardia) Microaerobiosis

Compound | melting point [°C] | IC50 [1, 2] [nM] | IC50 [1, 3] [nM] | selectivity ratio at 48 h [1, 4] | selectivity ratio at 48 h [1, 5] | IC50 (Caco-2 cells) [nM] | fold more efficient than MTZ against Giardia [1]
Cc1ccc(C(=O)/C=C/c2cc3ccccc3n(Cc3cn(-c4ccc(C)cc4)nn3)c2=O)cc1 [Compound 37] | 202 to 204 | 6300 | 1600 | ≥ 7 | ≥ 31 | ≥ 50000 | –
COc1ccc(C(=O)/C=C/c2cc3ccccc3n(Cc3cn(-c4ccc(C)cc4)nn3)c2=O)cc1 [Compound 40] | 182 to 184 | ≥ 15000 | 2400 | – | ≥ 25 | ≥ 60000 | –
O=C(/C=C/c1cc2ccccc2n(Cc2cn(-c3ccc(F)cc3)nn2)c1=O)c1cccc(F)c1 [Compound 42] | 203 to 205 | 3300 | 700 | 2.9 | 13.7 | 9600 | –
O=C(/C=C/c1cc2ccccc2n(Cc2cn(-c3ccc(F)cc3)nn2)c1=O)c1ccc(F)cc1 [Compound 43] | 202 to 204 | 1200 | 300 | 5.8 | 23.3 | 7000 | three to fourfold
O=C(/C=C/c1cc2ccccc2n(Cc2cn(-c3ccc(F)cc3)nn2)c1=O)c1ccc(Cl)cc1 [Compound 44] | 190 to 192 | 1500 | 1000 | 4.8 | 7.2 | 7200 | –

Continued, in another order:

melting point [°C] | Compound | IC50 [1, 2] [nM] | IC50 [1, 3] [nM] | selectivity ratio at 48 h [1, 4] | selectivity ratio at 48 h [1, 5] | IC50 (Caco-2 cells) [nM] | fold more efficient than MTZ against Giardia [1]
238 to 240 | O=C(/C=C/c1cc2ccccc2n(Cc2cn(-c3ccc(F)cc3)nn2)c1=O)c1ccc(Br)cc1 [Compound 45] | 1100 | 500 | 15.2 | 33.4 | 16700 | three to fourfold
132 to 134 | COc1ccccc1C(=O)/C=C/c1cc2ccccc2n(Cc2cn(-c3ccc(F)cc3)nn2)c1=O [Compound 47] | 2700 | 300 | ≥ 7 | ≥ 66 | ≥ 20000 | –
220 to 222 | COc1cccc(C(=O)/C=C/c2cc3ccccc3n(Cc3cn(-c4ccc(F)cc4)nn3)c2=O)c1 [Compound 48] | 7000 | 1600 | ≥ 8 | ≥ 37 | ≥ 60000 | –
242 to 244 | O=C(/C=C/c1cc2ccccc2n(Cc2cn(-c3ccc(Cl)cc3)nn2)c1=O)c1ccccc1F [Compound 50] | 4700 | 900 | ≥ 10 | ≥ 55 | ≥ 50000 | –
190 to 192 | O=C(/C=C/c1cc2ccccc2n(Cc2cn(-c3ccc(Cl)cc3)nn2)c1=O)c1cccc(F)c1 [Compound 51] | 10000 | 900 | ≥ 10 | ≥ 111 | ≥ 100000 | –
